Results from patent US8759264B2, “Water-based hydraulic fluids comprising dithio-di(aryl carbolic acids)” (Clarient Finance (BVI) Limited, priority 2008, dated 2014).
Where two headings read alike, the source gives them in different places.

Legend:
Algal = Algal toxicity; settings: in vivo
[1] = Biodegradability (OECD 306)
Fish = Fish toxicity; settings: in vivo

| Molecule | Algal toxicity (EC50) (Algal) [µg/mL] | Biodegradability (OECD 306) ([1]; OECD 306) [%] | Fish toxicity (LC50) (Fish) [µg/mL] | Biodegradability (OECD 306) [1] [%] |
| --- | --- | --- | --- | --- |
| O=C(O)c1ccccc1SSc1ccccc1C(=O)O [Dithiodi(benzoic acid), o-dithiodibenzoic acid] | >100 | >30 | >100 | – |
| S=c1[nH]c2ccccc2s1 [Mercaptobenzothiazole] | <1 | <20 | <10 | – |
| N-Aminoethyloleyl-imidazoline | <1 | – | <10 | >60 |
